US20260191827A1, “COMPOUNDS FOR USE IN THE TREATMENT OF DISEASES AND CONDITIONS ASSOCIATED WITH NEURODEGENERATIVE DYSFUNCTION” (OnTrack Therapeutics Limited, priority 2022, published 2026)
Structures can show the parent of a compound that is named as a salt.

What was measured:
[1] = molecular target: tropomyosin receptor kinase B (TrkB) (Homo sapiens, UniProt Q16620); conditions: known from background; cited from earlier work
[2] = tested on: sub-chronic PCP-induced deficits in recognition memory in rats; experiment: Sub-chronic PCP-induced deficit in novel object recognition (NOR) paradigm; conditions: for Acquisition total exploration time / Retention total exploration time: mean ± s.e.m.
5XFAD mice = conditions: repeated administration, WO2020/033604; cited from earlier work
[3] = tested on: animal model of Alzheimer's disease; conditions: low dose; Chen et al., 2021; cited from earlier work
[4] = tested on: scopolamine-induced cognitive deficit in mice; experiment: Scopolamine-induced cognitive deficit, T-maze spontaneous alternation
Experimental: 60 male CD-1 mice (Janvier; Le Genest St Isle—France) were used for the study, with 10 animals per group.
Animals in the API groups were pre-treated (p.o.) once a day for 30 days, the last treatment was given 1 h before the T-maze test.
Compound of Formula I or its vehicle was administered at 5 ml/kg using p.o. route. The vehicle was 5% DMSO/0.5% methylcellulose in water. Fresh compound solution was prepared daily as following: the required amount of compound will be dissolved in 100% DMSO and then the required amount of 0.5% methylcellulose in water was added.
On the day of the T-maze, the last treatment was given 1 h before the task.
Donepezil (donepezil hydrochloride) was prepared in saline at a concentration of 0.03 mg/ml and was given p.o. at a dosage volume of 10 ml/kg 1 h before the T-maze trial start.
Scopolamine was prepared in saline (vehicle) at a concentration of 0.089 mg/ml (free base) and was given i.p. at a dosage volume of 10 ml/kg 30 min before the T-maze trial start.
The T-maze consists of 2 choice arms and 1 start arm mounted to a square centre. Sliding doors are provided to close specific arms during the force choice alternation task.
The experimental protocol consists of one single session, which starts with 1 “forced-choice” trial, followed by 14 “free-choice” trials. In the first “forced-choice” trial, the animal was confined for 5 s in the start arm and then was released while either the left or right goal arm was blocked by closing the sliding door. The animal then negotiated the maze, and eventually entered the open goal arm, and returned to the start position.
Immediately after the return of the animal to the start position, the left or right goal door was opened, and the animal was allowed to choose freely between the left and right goal arm (“free choice trials).
The animal was considered to have entered an arm when it placed its four paws in the arm.
A session was terminated, and the animal was removed from the maze as soon as 14 free-choice trials had been performed or 10 min have elapsed, whatever event occurred first.
The percentage of spontaneous alternations were calculated as number of spontaneous alternations divided by 14 possible free choice.
Statistical analysis was assessed using Anova followed by Fischer's Protected Least Significant Difference for pairwise comparison. p level <0.05 was deemed significant.

[5] = tested on: scopolamine-induced impairment in cognition; conditions: normal healthy humans, donepezil 10 mg; cited from earlier work
[6] = 20-day phase (day 20), scPCP rats, acute risperidone 0.1 mg/kg i.p. 60 min before test
[7] = acute phase (day 1), scPCP rats, risperidone 0.1 mg/kg i.p. 60 min before test
[8] = 20-day once-daily treatment, scPCP rats, 10 mg/kg p.o.
[9] = 20-day once-daily treatment, scPCP rats, 30 mg/kg p.o.
[10] = acute treatment, scPCP rats, 10 mg/kg p.o. 120 min before test
[11] = acute treatment, scPCP rats, 30 mg/kg p.o. 120 min before test

Chain of tropomyosin receptor kinase B (TrkB) (Q16620 32-822, species assumed): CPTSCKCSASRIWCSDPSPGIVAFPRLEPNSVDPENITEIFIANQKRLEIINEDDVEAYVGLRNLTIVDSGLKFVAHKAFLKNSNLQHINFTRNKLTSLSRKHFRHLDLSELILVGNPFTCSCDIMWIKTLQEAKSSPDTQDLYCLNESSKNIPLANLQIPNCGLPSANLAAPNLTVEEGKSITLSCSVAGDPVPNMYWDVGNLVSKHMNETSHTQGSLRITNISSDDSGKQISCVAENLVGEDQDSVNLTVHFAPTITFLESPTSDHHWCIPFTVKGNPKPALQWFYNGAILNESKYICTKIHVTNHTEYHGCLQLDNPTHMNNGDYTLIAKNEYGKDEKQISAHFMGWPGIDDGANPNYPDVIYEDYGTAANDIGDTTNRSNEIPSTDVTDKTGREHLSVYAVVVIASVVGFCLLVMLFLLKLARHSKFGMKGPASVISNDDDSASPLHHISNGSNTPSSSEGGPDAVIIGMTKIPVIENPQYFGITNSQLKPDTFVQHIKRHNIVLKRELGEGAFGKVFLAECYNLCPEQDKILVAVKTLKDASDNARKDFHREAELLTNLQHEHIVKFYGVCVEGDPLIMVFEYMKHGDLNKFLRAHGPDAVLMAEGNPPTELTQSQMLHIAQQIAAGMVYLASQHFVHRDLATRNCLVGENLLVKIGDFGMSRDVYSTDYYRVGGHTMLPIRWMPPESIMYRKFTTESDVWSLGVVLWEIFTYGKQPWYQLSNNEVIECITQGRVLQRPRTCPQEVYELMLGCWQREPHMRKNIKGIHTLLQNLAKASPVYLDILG

## O=c1cc(-c2ccccc2)oc2c(O)c(O)ccc12 [tropoflavin, 7,8-dihydroxyflavone]
[1]
  TrkB activity: potent and selective agonist

## Cc1nc2n(c(=O)c1CCN1CCC(c3noc4cc(F)ccc34)CC1)CCCC2 [Risperidone, risperidone, reference compound]
[2]; [6]
  Acquisition total exploration time: 25.5 ± 3.4 s
  Retention total exploration time: 17.8 ± 1.1 s
[2]; [7]
  Acquisition total exploration time: 22.81 ± 4.03 s
  Retention total exploration time: 23.10 ± 2.92 s
[2]; acute phase, risperidone 0.1 mg/kg i.p., versus scPCP without treatment and test compound (FIG. 4)
  discrimination index (DI): higher
[2]; risperidone dosed acutely
  rescue of deficits induced by scPCP in NOR: able to rescue the deficits induced by scPCP

## N#Cc1ccc(-c2cc(=O)c3ccc4[nH]c(C(F)(F)F)nc4c3o2)cc1 [compound of Formula I, 4-(6-oxo-2-(trifluoromethyl)-3,6-dihydrochromeno [7,8-d]imidazol-8-yl)benzonitrile]
5XFAD mice
  synaptic loss: able to prevent synaptic loss
[3]
  dose effect in Alzheimer's disease animal model: saturation effect
[4]; 30 days treatment prior to scopolamine, statistically significant
  spontaneous alternations in comparison to vehicle in scopolamine-treated mice: increased percentage of spontaneous alternations
[4]; Saline (healthy mice), Compound of Formula I high dose 10 mg/kg p.o. once a day for 30 days, 10 mg/kg
  Spontaneous alternation (%): 64%
[4]; Saline (healthy mice), Compound of Formula I high dose 10 mg/kg p.o. once a day for 30 days, listed as Compound of Formula I, 10 mg/kg
  Spontaneous alternation (%): 64.3%
[4]; Scopolamine, Compound of Formula I high dose 10 mg/kg p.o. once a day for 30 days, 10 mg/kg
  Spontaneous alternation (%): 56%
[4]; Scopolamine, Compound of Formula I high dose 10 mg/kg p.o. once a day for 30 days, listed as Compound of Formula I, 10 mg/kg
  Spontaneous alternation (%): 55.7%
[4]; Scopolamine, Compound of Formula I low dose 5 mg/kg p.o. once a day for 30 days, 5 mg/kg
  Spontaneous alternation (%): 56%
[4]; Scopolamine, Compound of Formula I low dose 5 mg/kg p.o. once a day for 30 days, listed as Compound of Formula I, 5 mg/kg
  Spontaneous alternation (%): 55.7%
[4]; healthy mice, 10 mg/kg, 30 days
  effect on cognition in healthy animals: did not impair cognition in healthy animals
[2]; [8]
  Acquisition total exploration time: 24.6 ± 3.4 s
  Retention total exploration time: 19.0 ± 1.4 s
[2]; [9]
  Acquisition total exploration time: 26.1 ± 3.1 s
  Retention total exploration time: 20.8 ± 1.2 s
[2]; 20-day treatment, 30 mg/kg, compared to animals without treatment, P<0.015 (FIG. 8)
  discrimination index (DI): statistically significant increase
[2]; 20-day treatment, scPCP rats, 10 & 30 mg/kg p.o., P<0.01 (FIG. 7)
  amount of time spent exploring the familiar and novel object in the retention trial: dose dependent statistically significant effect
[2]; [10]
  Acquisition total exploration time: 21.75 ± 2.46 s
  Retention total exploration time: 22.55 ± 1.60 s
[2]; [11]
  Acquisition total exploration time: 25.49 ± 3.04 s
  Retention total exploration time: 26.18 ± 2.11 s
[2]; acute treatment, scPCP rats, 10 & 30 mg/kg p.o. (FIG. 3)
  amount of time exploring the novel or familiar object in the retention trial: not shown to have a difference
[2]; dosing for a 20-day period
  rescue of deficits induced by scPCP in NOR: able to rescue the scPCP in a dose dependent manner

## COc1cc2c(cc1OC)C(=O)C(CC1CCN(Cc3ccccc3)CC1)C2 (stereo not drawn) [Donepezil, donepezil hydrochloride, reference compound]
[5]
  scopolamine-induced impairment in cognition (power of attention, continuity of attention, quality of working memory, speed of memory): significantly attenuated
[4]; Scopolamine 0.89 mg/kg i.p., Donepezil 0.3 mg/kg p.o. 1 h before T-maze, hydrochloride
  Spontaneous alternation (%): 65.0%
[4]; Scopolamine 0.89 mg/kg i.p., Donepezil 0.3 mg/kg p.o. 1 h before T-maze, listed as donepezil, hydrochloride
  Spontaneous alternation (%): 65%
[4]; donepezil 0.3 mg/kg, statistically significant
  effect on scopolamine-induced decline in cognitive function: ameliorated
